Data published in patent US20080249080A1, “Benzodiazepine Derivatives and Uses Thereof on Medical Field” (priority 2005, published 2008).
“Also recorded” adds a separate entry of the source.

Assays:
[1] = target: RET kinase (Homo sapiens, UniProt P07949); settings: cited from earlier work
[2] = test system: RET/C634R and RET/M918T mutants; settings: cited from earlier work
[3] = test system: RET/E768D, RET/L790F, RET/Y791F, RET/A883F and RET/S891A mutants; settings: cited from earlier work
[4] = test system: RET/V804L and RET/V804M mutants; settings: cited from earlier work
[5] = test system: K562 (human erythroleucemic cell line); assay: Apoptosis by propidium iodide flow cytofluorimetry, K562; assay type: cell-based; settings: 10 μM; for percentage of the apoptotic cells in comparison with non treated cells: FIGS. 7-9; for time after which apoptosis is induced: propidium iodide, cytofluorimeter
Protocol: (§1) The used cellular lines are: K562 (human erythroleucemic cell line), HL60 (human acute promyelocytic leukemia cell line), Jurkat (cell line from acute lymphoblastic T variant leukemias), U937 (acute promyelocitic leukemia cell line) and Glivec resistant K562 (this cell line was supplied kindly by Prof. Carlo Gambacorti-Passerini of the Dipartimento of Clinica Medica, Università of Milan-Bicocca, Monza, Italy) (Gambacorti-Passerini CB, et al, 2002).
(§2) The cell lines were incubated with RS678 and RS779 synthetic compounds at 10 μM concentration for 8, 16 and 24 hours, subsequently washed with PBS and 2.5 mg/ml of propidium iodide. This phenanthridine dye, when intercalated into double-stranded DNA forms a sufficiently stable complex that under excitation emits a red fluorescent light. By means of this coloration it is possible to discriminate in an heterogenous population cells with different DNA contents and therefore to estimate the distribution of the cellular populations based on their DNA contents and whether possibly, as a result from pharmacological treatments, alterations at level of cell cycle have manifested. The labeled cell lines were analyzed using flow FACSort cytofluorimeter.

[6] = test system: HL60 (human acute promyelocytic leukemia cell line); assay: Apoptosis by propidium iodide flow cytofluorimetry, HL60; assay type: cell-based; settings: 10 μM; for percentage of the apoptotic cells in comparison with non treated cells: FIGS. 7-9; for time after which apoptosis is induced: propidium iodide, cytofluorimeter
Protocol: as §1, §2

[7] = test system: Jurkat (cell line from acute lymphoblastic T variant leukemias); assay: Apoptosis by propidium iodide flow cytofluorimetry, Jurkat; assay type: cell-based; settings: 10 μM; for percentage of the apoptotic cells in comparison with non treated cells: FIGS. 7-9; for time after which apoptosis is induced: propidium iodide, cytofluorimeter
Protocol: as §1, §2

[8] = test system: U937 (acute promyelocitic leukemia cell line); assay: Apoptosis by propidium iodide flow cytofluorimetry, U937; assay type: cell-based; settings: 10 μM; for percentage of the apoptotic cells in comparison with non treated cells: FIGS. 7-9; for time after which apoptosis is induced: propidium iodide, cytofluorimeter
Protocol: as §1, §2

[9] = test system: Glivec resistant K562; assay: Apoptosis by propidium iodide flow cytofluorimetry, Glivec resistant K562; assay type: cell-based, human; settings: 10 μM; for percentage of the apoptotic cells in comparison with non treated cells: FIGS. 7-9; for time after which apoptosis is induced: propidium iodide, cytofluorimeter
Protocol: as §1, §2

[10] = test system: R2C cell line (rat Leydig tumour); assay: DNA fragmentation, R2C cell line; assay type: cell-based; settings: high concentrations (10 μM and 50 μM), FIG. 1 C
[11] = test system: mixed lymphocytic cultures from marrow or peripheral blood of patients suffering from chronic myelogenous leukemia; assay: DNA fragmentation, mixed lymphocytic cultures of CML patients; assay type: cell-based, human; settings: 10 μM
[12] = test system: OVCAR3 ovary carcinoma cell line; assay: DNA fragmentation, OVCAR3; assay type: cell-based, human; settings: 10 μM, 24 and 48 hours
Excerpt: (§3) The authors also have tested compounds according to the invention, in particular RS-678 and RS-779 compounds, also on OVCAR3 ovary carcinoma cell lines, ARO anaplastic thyroid and NPA papillary thyroid human carcinoma cell lines.

[13] = test system: ARO anaplastic thyroid carcinoma cell line; assay: DNA fragmentation, ARO; assay type: cell-based, human; settings: 10 μM, 24 and 48 hours
Protocol: as §3
(§4) Subsequently, the same cell lines, except OVCAR3, were tested with fourteen new synthetic compounds at 10 μM concentration for 24 and 48 hours: eleven induced the expected cellular death.

[14] = test system: NPA papillary thyroid carcinoma cell line; assay: DNA fragmentation, NPA; assay type: cell-based, human; settings: 10 μM, 24 and 48 hours
Protocol: as §3, §4

[15] = test system: caspase 8; assay: Western blot, caspase 8 activation in K562; assay type: cell-based, human; settings: FIG. 3
Protocol: (§5) Moreover, in order to elucidate the apoptotic pathway triggered by these two substances, Western Blotting experiments and tyrosine-kinase assays were carried out and evidenced that: (i) these compounds activate specific molecules involved in the apoptotic process (caspase 9 and caspase 8) (FIG. 3);

[16] = test system: caspase 9; assay: Western blot, caspase 9 activation in K562; assay type: cell-based, human; settings: FIG. 3
Protocol: as §5

[17] = test system: bcr-abl protein; assay: Western blot, bcr-abl protein expression; assay type: cell-based, human; settings: after 16 hours of treatment; FIG. 4
Protocol: (§6) Moreover, in order to elucidate the apoptotic pathway triggered by these two substances, Western Blotting experiments and tyrosine-kinase assays were carried out and evidenced that: […]

[18] = target: T1, bcr-abl protein (Homo sapiens, UniProt P00519); assay: Tyrosine-kinase assay, bcr-abl phosphorylation pattern; assay type: cell-based; settings: FIG. 4
T1 construct: endogenous in cells; host or cells: K562; the other entry of the earlier key: BCR (P11274, Breakpoint cluster region protein)
Protocol: as §6

[19] = test system: K562 cell line; assay: DNA fragmentation, K562 leukemic cell line; assay type: cell-based, human; settings: 5, 10, 15 μM, 8, 16 and 24 hours, FIG. 1 A, B
[20] = test system: caspase 9; assay: Western blot, caspase 9 in CML patient sample; assay type: cell-based, human; settings: 24 and 48 hours, FIG. 15
[21] = test system: ARO cell line; assay: Percentage of dead cells, ARO; assay type: cell-based, human; settings: after 24 hours
[22] = test system: NPA cell line; assay: Percentage of apoptosis, NPA; assay type: cell-based, human; settings: after 24 hours
[23] = test system: K562 cell line; assay: Percentage of apoptosis, K562; assay type: cell-based, human; settings: after 24 hours
[24] = test system: RET/C634R transformed RAT1 fibroblasts; settings: 1 μl of ZD6474; cited from earlier work
[25] = test system: RET/V804L and RET/V804M transformed cells; settings: same concentration (1 μl of ZD6474); cited from earlier work
[26] = mixed lymphocytic cultures of CML patients, 8, 16, 24 and 48 hours
[27] = samples from patients (some Glivec resistant), 24, 48 and 72 hours, FIGS. 12-14

T1 sequence (P00519 with tags, fused parts or gaps): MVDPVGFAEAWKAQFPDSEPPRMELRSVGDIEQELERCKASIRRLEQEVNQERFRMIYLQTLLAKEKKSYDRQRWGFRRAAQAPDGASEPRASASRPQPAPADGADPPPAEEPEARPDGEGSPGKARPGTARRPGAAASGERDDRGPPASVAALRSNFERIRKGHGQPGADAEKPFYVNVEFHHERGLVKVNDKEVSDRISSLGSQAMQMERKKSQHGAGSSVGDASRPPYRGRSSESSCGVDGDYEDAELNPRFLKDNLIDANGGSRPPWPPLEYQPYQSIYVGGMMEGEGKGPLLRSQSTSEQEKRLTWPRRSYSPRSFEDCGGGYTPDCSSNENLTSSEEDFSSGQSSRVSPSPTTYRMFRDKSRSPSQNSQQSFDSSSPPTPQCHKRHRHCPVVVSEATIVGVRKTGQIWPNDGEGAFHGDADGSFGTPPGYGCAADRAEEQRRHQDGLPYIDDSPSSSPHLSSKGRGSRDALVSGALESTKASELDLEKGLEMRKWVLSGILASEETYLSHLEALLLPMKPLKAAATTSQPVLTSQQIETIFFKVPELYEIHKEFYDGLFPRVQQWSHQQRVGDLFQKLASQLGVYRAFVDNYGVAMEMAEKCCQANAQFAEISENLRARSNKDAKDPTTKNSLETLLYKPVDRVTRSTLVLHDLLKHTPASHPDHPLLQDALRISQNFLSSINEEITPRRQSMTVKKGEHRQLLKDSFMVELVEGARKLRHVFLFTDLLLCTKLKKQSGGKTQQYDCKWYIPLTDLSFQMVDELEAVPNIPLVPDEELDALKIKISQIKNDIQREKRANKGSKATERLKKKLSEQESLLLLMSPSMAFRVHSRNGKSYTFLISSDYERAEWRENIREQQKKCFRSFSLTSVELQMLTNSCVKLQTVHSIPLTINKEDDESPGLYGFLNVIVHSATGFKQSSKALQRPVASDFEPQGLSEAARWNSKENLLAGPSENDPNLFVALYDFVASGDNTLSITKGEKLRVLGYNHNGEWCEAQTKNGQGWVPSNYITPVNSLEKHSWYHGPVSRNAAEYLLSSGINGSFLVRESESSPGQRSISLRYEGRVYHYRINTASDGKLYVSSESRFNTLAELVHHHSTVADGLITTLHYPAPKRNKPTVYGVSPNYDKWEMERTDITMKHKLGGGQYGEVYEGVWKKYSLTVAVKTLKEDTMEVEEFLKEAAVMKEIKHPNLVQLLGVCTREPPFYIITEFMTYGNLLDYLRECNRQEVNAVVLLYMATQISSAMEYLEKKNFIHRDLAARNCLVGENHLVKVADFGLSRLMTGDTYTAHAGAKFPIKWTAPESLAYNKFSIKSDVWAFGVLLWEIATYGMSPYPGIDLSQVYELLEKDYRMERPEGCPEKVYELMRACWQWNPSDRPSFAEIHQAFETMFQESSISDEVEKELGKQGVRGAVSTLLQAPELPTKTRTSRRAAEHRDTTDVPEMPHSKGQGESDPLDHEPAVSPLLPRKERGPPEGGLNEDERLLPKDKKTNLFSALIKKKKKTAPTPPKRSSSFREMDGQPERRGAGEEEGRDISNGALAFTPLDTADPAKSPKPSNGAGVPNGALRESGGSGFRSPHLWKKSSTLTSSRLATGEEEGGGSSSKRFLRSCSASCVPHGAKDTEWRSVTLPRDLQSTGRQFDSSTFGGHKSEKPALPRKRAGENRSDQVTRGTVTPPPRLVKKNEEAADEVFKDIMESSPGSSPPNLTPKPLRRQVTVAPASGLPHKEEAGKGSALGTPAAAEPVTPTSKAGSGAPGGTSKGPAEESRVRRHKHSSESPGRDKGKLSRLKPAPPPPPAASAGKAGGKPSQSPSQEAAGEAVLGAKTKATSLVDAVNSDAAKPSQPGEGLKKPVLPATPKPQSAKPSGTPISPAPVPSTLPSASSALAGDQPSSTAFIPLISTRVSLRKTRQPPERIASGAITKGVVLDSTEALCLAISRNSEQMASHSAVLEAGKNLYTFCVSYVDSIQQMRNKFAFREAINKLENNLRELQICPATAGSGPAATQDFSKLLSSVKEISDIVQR
RET kinase, sequence (P07949 29-1114): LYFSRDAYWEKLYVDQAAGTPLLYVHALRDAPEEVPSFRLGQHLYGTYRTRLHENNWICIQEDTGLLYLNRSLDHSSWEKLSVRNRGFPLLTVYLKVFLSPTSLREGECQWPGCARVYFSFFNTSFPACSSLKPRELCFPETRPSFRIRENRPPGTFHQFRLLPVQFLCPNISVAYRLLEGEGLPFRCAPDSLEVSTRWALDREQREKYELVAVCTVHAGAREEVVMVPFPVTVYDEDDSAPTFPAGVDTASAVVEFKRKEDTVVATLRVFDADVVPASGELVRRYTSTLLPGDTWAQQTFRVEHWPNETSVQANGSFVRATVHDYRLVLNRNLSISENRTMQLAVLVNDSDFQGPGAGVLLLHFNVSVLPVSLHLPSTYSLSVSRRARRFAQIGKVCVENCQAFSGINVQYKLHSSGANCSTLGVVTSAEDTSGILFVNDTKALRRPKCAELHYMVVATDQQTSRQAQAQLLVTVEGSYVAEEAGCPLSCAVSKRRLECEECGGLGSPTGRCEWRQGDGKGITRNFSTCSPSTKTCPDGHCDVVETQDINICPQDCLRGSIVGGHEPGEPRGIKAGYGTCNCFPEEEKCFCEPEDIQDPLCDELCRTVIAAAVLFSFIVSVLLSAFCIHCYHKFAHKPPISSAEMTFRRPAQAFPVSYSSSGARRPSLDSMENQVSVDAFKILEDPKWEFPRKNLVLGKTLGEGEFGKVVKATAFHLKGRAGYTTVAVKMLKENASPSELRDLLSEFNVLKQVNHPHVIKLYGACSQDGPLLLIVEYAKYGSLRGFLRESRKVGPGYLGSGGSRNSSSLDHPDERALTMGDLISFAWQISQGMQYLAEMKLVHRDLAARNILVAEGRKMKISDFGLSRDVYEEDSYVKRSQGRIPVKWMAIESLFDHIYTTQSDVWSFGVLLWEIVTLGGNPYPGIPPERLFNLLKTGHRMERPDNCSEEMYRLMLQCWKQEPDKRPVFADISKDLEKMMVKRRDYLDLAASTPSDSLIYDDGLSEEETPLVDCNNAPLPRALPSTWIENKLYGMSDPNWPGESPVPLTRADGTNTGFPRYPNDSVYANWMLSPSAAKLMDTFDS

Row | Compound | block of the transforming activity [2] | inhibition of in vivo self-phosphorylation [3] | sensitivity to the action of inhibitors [4] | percentage of the apoptotic cells in comparison with non treated cells [5] | time after which apoptosis is induced [5] [h] | percentage of the apoptotic cells in comparison with non treated cells [6] | time after which apoptosis is induced [6] [h] | percentage of the apoptotic cells in comparison with non treated cells [7] | time after which apoptosis is induced [7] [h] | percentage of the apoptotic cells in comparison with non treated cells [8] | time after which apoptosis is induced [8] [h] | percentage of the apoptotic cells in comparison with non treated cells [9] | time after which apoptosis is induced [9] [h] | DNA fragmentation [10] | DNA fragmentation [11, 26] | DNA fragmentation [11, 27] | DNA fragmentation [12] | DNA fragmentation [13] | DNA fragmentation [14] | activation of caspase 8 (Western blot) [15] | also measured
1 | CC(C)(C)n1nc(-c2ccc(Cl)cc2)c2c(N)ncnc21 [PP2] | able to block | inhibited effectively | less sensitive |  |  |  |  |  |  |  |  |  |  |  |  |  |  |  |  |  | inhibiting activity with respect to RET kinase [1]: strong inhibiting activity
2 | CCOC(=O)C1Nc2ccccc2S(=O)(=O)n2cccc21 (stereo not shown) [RS-678, ethyl 10,11-dihydropyrrolo[1,2-b][1,2,5]benzothiadiazepine-11-carboxylate 5,5-dioxide] |  |  |  | increase | 8 | increase | 8 | increase | 8 | increase | 8 | increase | 16 | does not occur | fragmentation of the DNA | DNA fragmentation | induction of the DNA fragmentation | induction of the DNA fragmentation | induction of the DNA fragmentation | activation | activation of caspase 9 (Western blot) [16]: activation; down-regulation of the bcr-abl protein (Western blot) [17]: down-regulation; changes in the phosphorylation pattern of the bcr-abl protein (tyrosine-kinase assay) [18]: not observed; apoptosis / DNA fragmentation [19]: able to induce apoptosis; also recorded: DNA fragmentation
3 | CCOC(=O)C1c2cccn2S(=O)(=O)c2ccccc2N1C(=O)c1ccc(C)cc1 (stereo not shown) [RS-779, ethyl 10,11-dihydro-10-(4-methylbenzoyl)pyrrolo[1,2-b][1,2,5]benzothiadiazepine-11-carboxylate 5,5-dioxide] |  |  |  | increase | 8 | increase | 8 | increase | 8 | increase | 8 | increase | 16 | does not occur | fragmentation of the DNA | DNA fragmentation | induction of the DNA fragmentation | induction of the DNA fragmentation | induction of the DNA fragmentation | activation | activation of caspase 9 (Western blot) [16]: activation; down-regulation of the bcr-abl protein (Western blot) [17]: down-regulation; changes in the phosphorylation pattern of the bcr-abl protein (tyrosine-kinase assay) [18]: not observed; activation of caspase 9 (Western blot) [20]: strong activation; percentage of dead cells [21]: 45%; percentage of apoptosis [22]: 50%; percentage of apoptosis [23]: 70%; apoptosis / DNA fragmentation [19]: able to induce apoptosis; also recorded: DNA fragmentation
4 | COc1cc2c(Nc3ccc(Br)cc3F)ncnc2cc1OCC1CCN(C)CC1 [ZD6474] | able to block | inhibited effectively | less sensitive |  |  |  |  |  |  |  |  |  |  |  |  |  |  |  |  |  | proliferation [24]: reduces strongly; growth [25]: no effect
